Test system: NCI-H841 complex tumor spheroid viability
Assay: Anticancer human tumor NCI-H841 cell line growth inhibition;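 note: spheroids exposed to compounds for 7 days before readout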;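 for viability, T/C: 100% = DMSO vehicle control wells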
Settings: for IC50: curve of first compound; for viability, T/C: stronger effect = lower value
In short: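 Complex spheroids of malignant cells with endothelial cells and mesenchymal stem cells; agents alone or combined, from near clinical Cmax (or 10 microM if unknown) down in half-log steps, 0.25% DMSO final.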

[1] = second compound 0.003 µM, first compound 0.0316 µM
[2] = second compound 0.003 µM, first compound 0.1 µM
[3] = second compound 0.003 µM, first compound 0.316 µM
[4] = second compound 0.003 µM, first compound 1 µM
[5] = second compound 0.003 µM, first compound 3.16 µM
[6] = second compound 0.003 µM, first compound 10 µM
[7] = second compound 0.00949 µM, first compound 0.0316 µM
[8] = second compound 0.00949 µM, first compound 0.1 µM
[9] = second compound 0.00949 µM, first compound 0.316 µM
[10] = second compound 0.00949 µM, first compound 1 µM
[11] = second compound 0.00949 µM, first compound 3.16 µM
[12] = second compound 0.00949 µM, first compound 10 µM
[13] = second compound 0.03 µM, first compound 0.0316 µM
[14] = second compound 0.03 µM, first compound 0.1 µM
[15] = second compound 0.03 µM, first compound 0.316 µM
[16] = second compound 0.03 µM, first compound 1 µM
[17] = second compound 0.03 µM, first compound 3.16 µM
[18] = second compound 0.03 µM, first compound 10 µM
[19] = second compound 0.0949 µM, first compound 0.0316 µM
[20] = second compound 0.0949 µM, first compound 0.1 µM
[21] = second compound 0.0949 µM, first compound 0.316 µM
[22] = second compound 0.0949 µM, first compound 1 µM
[23] = second compound 0.0949 µM, first compound 3.16 µM
[24] = second compound 0.0949 µM, first compound 10 µM
[25] = second compound 0.3 µM, first compound 0.0316 µM
[26] = second compound 0.3 µM, first compound 0.1 µM
[27] = second compound 0.3 µM, first compound 0.316 µM
[28] = second compound 0.3 µM, first compound 1 µM
[29] = second compound 0.3 µM, first compound 3.16 µM
[30] = second compound 0.3 µM, first compound 10 µM
[31] = second compound 30 pM, first compound 0.00949 µM
[32] = second compound 30 pM, first compound 0.03 µM
[33] = second compound 30 pM, first compound 0.0949 µM
[34] = second compound 30 pM, first compound 0.3 µM
[35] = second compound 30 pM, first compound 0.949 µM
[36] = second compound 30 pM, first compound 3 µM
[37] = second compound 94.9 pM, first compound 0.00949 µM
[38] = second compound 94.9 pM, first compound 0.03 µM
[39] = second compound 94.9 pM, first compound 0.0949 µM
[40] = second compound 94.9 pM, first compound 0.3 µM
[41] = second compound 94.9 pM, first compound 0.949 µM
[42] = second compound 94.9 pM, first compound 3 µM
[43] = second compound 0.0003 µM, first compound 0.00949 µM
[44] = second compound 0.0003 µM, first compound 0.03 µM
[45] = second compound 0.0003 µM, first compound 0.0949 µM
[46] = second compound 0.0003 µM, first compound 0.3 µM
[47] = second compound 0.0003 µM, first compound 0.949 µM
[48] = second compound 0.0003 µM, first compound 3 µM
[49] = second compound 0.000949 µM, first compound 0.00949 µM
[50] = second compound 0.000949 µM, first compound 0.03 µM
[51] = second compound 0.000949 µM, first compound 0.0949 µM
[52] = second compound 0.000949 µM, first compound 0.3 µM
[53] = second compound 0.000949 µM, first compound 0.949 µM
[54] = second compound 0.000949 µM, first compound 3 µM
[55] = second compound 0.003 µM, first compound 0.00949 µM
[56] = second compound 0.003 µM, first compound 0.03 µM
[57] = second compound 0.003 µM, first compound 0.0949 µM
[58] = second compound 0.003 µM, first compound 0.3 µM
[59] = second compound 0.003 µM, first compound 0.949 µM
[60] = second compound 0.003 µM, first compound 3 µM

## CC(C)n1c(=O)n(C)c2cnc3cc(F)c(-c4ccc(OCCCN5CCCCC5)nc4)cc3c21 + CC[C@@]1(O)C(=O)OCc2c1cc1n(c2=O)Cc2cc3c(CN(C)C)c(O)ccc3nc2-1
Second compound 0.003 µM
  IC50: < 31.6 nM
Second compound 0.00949 µM
  IC50: < 31.6 nM
Second compound 0.03 µM
  IC50: < 31.6 nM
Second compound 0.0949 µM
  IC50: < 31.6 nM
Second compound 0.3 µM
  IC50: < 31.6 nM
[1]
  viability, T/C: 47%
[2]
  viability, T/C: 51.3%
[3]
  viability, T/C: 56.6%
[4]
  viability, T/C: 63.5%
[5]
  viability, T/C: 65.1%
[6]
  viability, T/C: 43.2%
[7]
  viability, T/C: 4.68%
[8]
  viability, T/C: 4.13%
[9]
  viability, T/C: 6.57%
[10]
  viability, T/C: 6.6%
[11]
  viability, T/C: 10.3%
[12]
  viability, T/C: 7.04%
[13]
  viability, T/C: 1.24%
[14]
  viability, T/C: 1.19%
[15]
  viability, T/C: 1.09%
[16]
  viability, T/C: 1.3%
[17]
  viability, T/C: 1.9%
[18]
  viability, T/C: 2.19%
[19]
  viability, T/C: 2.12%
[20]
  viability, T/C: 1.53%
[21]
  viability, T/C: 1.21%
[22]
  viability, T/C: 1.06%
[23]
  viability, T/C: 1.07%
[24]
  viability, T/C: 1.41%
[25]
  viability, T/C: 2.29%
[26]
  viability, T/C: 2.08%
[27]
  viability, T/C: 1.55%
[28]
  viability, T/C: 0.71%
[29]
  viability, T/C: 0.65%
[30]
  viability, T/C: 0.78%

## COc1ccc([C@@H](O)c2cc(-c3ncnc4cc(N5CCOCC5)ccc34)c(F)cc2Cl)nn1 + CC[C@@]1(O)C(=O)OCc2c1cc1n(c2=O)Cc2cc3c(CN(C)C)c(O)ccc3nc2-1
Second compound 0.003 µM
  IC50: 3830 nM
Second compound 0.00949 µM
  IC50: 1220 nM
Second compound 0.03 µM
  IC50: < 31.6 nM
Second compound 0.0949 µM
  IC50: < 31.6 nM
Second compound 0.3 µM
  IC50: < 31.6 nM
[1]
  viability, T/C: 95.6%
[2]
  viability, T/C: 95.9%
[3]
  viability, T/C: 94.9%
[4]
  viability, T/C: 86.5%
[5]
  viability, T/C: 58%
[6]
  viability, T/C: 10.6%
[7]
  viability, T/C: 83.1%
[8]
  viability, T/C: 83.6%
[9]
  viability, T/C: 76.3%
[10]
  viability, T/C: 52.6%
[11]
  viability, T/C: 27.9%
[12]
  viability, T/C: 6.04%
[13]
  viability, T/C: 4.02%
[14]
  viability, T/C: 2.47%
[15]
  viability, T/C: 1.69%
[16]
  viability, T/C: 1.88%
[17]
  viability, T/C: 1.8%
[18]
  viability, T/C: 1.21%
[19]
  viability, T/C: 1.56%
[20]
  viability, T/C: 1.55%
[21]
  viability, T/C: 1.96%
[22]
  viability, T/C: 1.31%
[23]
  viability, T/C: 0.92%
[24]
  viability, T/C: 0.89%
[25]
  viability, T/C: 1.74%
[26]
  viability, T/C: 1.64%
[27]
  viability, T/C: 1.32%
[28]
  viability, T/C: 1.22%
[29]
  viability, T/C: 0.55%
[30]
  viability, T/C: 0.42%

## CNCc1ccc(-c2cc(-c3nc(-c4ccc(S(=O)(=O)C(C)C)cc4)cnc3N)on2)cc1 + COc1cc2c(cc1O)CCNC21CSC2c3c(OC(C)=O)c(C)c4c(c3C(COC1=O)N1C(O)C3Cc5cc(C)c(OC)c(O)c5C(C21)N3C)OCO4
Second compound 30 pM
  IC50: 205 nM
Second compound 94.9 pM
  IC50: 136 nM
Second compound 0.0003 µM
  IC50: < 9.49 nM
Second compound 0.000949 µM
  IC50: < 9.49 nM
Second compound 0.003 µM
  IC50: < 9.49 nM
[31]
  viability, T/C: 97.6%
[32]
  viability, T/C: 99.6%
[33]
  viability, T/C: 86.8%
[34]
  viability, T/C: 31.6%
[35]
  viability, T/C: 7.14%
[36]
  viability, T/C: 1.78%
[37]
  viability, T/C: 93.8%
[38]
  viability, T/C: 92.6%
[39]
  viability, T/C: 66.2%
[40]
  viability, T/C: 13.6%
[41]
  viability, T/C: 2.49%
[42]
  viability, T/C: 1.05%
[43]
  viability, T/C: 44.8%
[44]
  viability, T/C: 28.3%
[45]
  viability, T/C: 7.38%
[46]
  viability, T/C: 1.78%
[47]
  viability, T/C: 1.69%
[48]
  viability, T/C: 0.41%
[49]
  viability, T/C: 2.86%
[50]
  viability, T/C: 2.26%
[51]
  viability, T/C: 1.25%
[52]
  viability, T/C: 0.59%
[53]
  viability, T/C: 0.5%
[54]
  viability, T/C: 0.09%
[55]
  viability, T/C: 0.1%
[56]
  viability, T/C: 0.1%
[57]
  viability, T/C: 0.09%
[58]
  viability, T/C: 0.1%
[59]
  viability, T/C: 0.09%
[60]
  viability, T/C: 0.15%

## Cn1ncnc1[C@H]1c2n[nH]c(=O)c3cc(F)cc(c23)N[C@@H]1c1ccc(F)cc1 + COc1cc2c(cc1O)CCNC21CSC2c3c(OC(C)=O)c(C)c4c(c3C(COC1=O)N1C(O)C3Cc5cc(C)c(OC)c(O)c5C(C21)N3C)OCO4
Second compound 30 pM
  IC50: 514 nM
Second compound 94.9 pM
  IC50: 252 nM
Second compound 0.0003 µM
  IC50: < 9.49 nM
Second compound 0.000949 µM
  IC50: < 9.49 nM
Second compound 0.003 µM
  IC50: < 9.49 nM
[31]
  viability, T/C: 94%
[32]
  viability, T/C: 91.6%
[33]
  viability, T/C: 86.4%
[34]
  viability, T/C: 71.3%
[35]
  viability, T/C: 26.4%
[36]
  viability, T/C: 1.05%
[37]
  viability, T/C: 85.6%
[38]
  viability, T/C: 76.5%
[39]
  viability, T/C: 66.1%
[40]
  viability, T/C: 51.5%
[41]
  viability, T/C: 11%
[42]
  viability, T/C: 1.19%
[43]
  viability, T/C: 16.7%
[44]
  viability, T/C: 9.8%
[45]
  viability, T/C: 7.64%
[46]
  viability, T/C: 2.97%
[47]
  viability, T/C: 1.63%
[48]
  viability, T/C: 1.27%
[49]
  viability, T/C: 3.02%
[50]
  viability, T/C: 3.35%
[51]
  viability, T/C: 2.75%
[52]
  viability, T/C: 2.82%
[53]
  viability, T/C: 2.18%
[54]
  viability, T/C: 0.23%
[55]
  viability, T/C: 0.11%
[56]
  viability, T/C: 0.12%
[57]
  viability, T/C: 0.12%
[58]
  viability, T/C: 0.1%
[59]
  viability, T/C: 0.1%
[60]
  viability, T/C: 0.19%

## O=C(c1cc(Cc2n[nH]c(=O)c3ccccc23)ccc1F)N1CCN(C(=O)C2CC2)CC1 + COc1cc2c(cc1O)CCNC21CSC2c3c(OC(C)=O)c(C)c4c(c3C(COC1=O)N1C(O)C3Cc5cc(C)c(OC)c(O)c5C(C21)N3C)OCO4
Second compound 30 pM
  IC50: 4580 nM
Second compound 94.9 pM
  IC50: 3050 nM
Second compound 0.0003 µM
  IC50: < 94.9 nM
Second compound 0.000949 µM
  IC50: < 94.9 nM
Second compound 0.003 µM
  IC50: < 94.9 nM
[33]
  viability, T/C: 107%
[34]
  viability, T/C: 105%
[35]
  viability, T/C: 101%
[36]
  viability, T/C: 77%
Second compound 30 pM, first compound 9.49 µM
  viability, T/C: 3.12%
Second compound 30 pM, first compound 30 µM
  viability, T/C: 1.74%
[39]
  viability, T/C: 97.5%
[40]
  viability, T/C: 97.8%
[41]
  viability, T/C: 87.4%
[42]
  viability, T/C: 52.1%
Second compound 94.9 pM, first compound 9.49 µM
  viability, T/C: 1.93%
Second compound 94.9 pM, first compound 30 µM
  viability, T/C: 1.27%
[45]
  viability, T/C: 27.4%
[46]
  viability, T/C: 22.1%
[47]
  viability, T/C: 18.2%
[48]
  viability, T/C: 2.51%
Second compound 0.0003 µM, first compound 9.49 µM
  viability, T/C: 1.17%
Second compound 0.0003 µM, first compound 30 µM
  viability, T/C: 0.76%
[51]
  viability, T/C: 3.77%
[52]
  viability, T/C: 4.04%
[53]
  viability, T/C: 2.93%
[54]
  viability, T/C: 0.82%
Second compound 0.000949 µM, first compound 9.49 µM
  viability, T/C: 0.32%
Second compound 0.000949 µM, first compound 30 µM
  viability, T/C: 0.11%
[57]
  viability, T/C: 7.31%
[58]
  viability, T/C: 0.2%
[59]
  viability, T/C: 0.13%
[60]
  viability, T/C: 0.12%
Second compound 0.003 µM, first compound 9.49 µM
  viability, T/C: 0.14%
Second compound 0.003 µM, first compound 30 µM
  viability, T/C: 0.29%

— PubChem BioAssay AID1845213 (Molecular Pharmacology Branch, DTP, NCI, 2023)
